# Test results: patent US20170362621A1, “ENGINEERED MULTIFUNCTIONAL ENZYMES AND METHODS OF USE” (Danisco US Inc., priority 2014, published 2017)
# Positions count from the first letter of the chain named. Names and notes keep the numbering of the source.
# B1: Trichoderma reesei Bgl1 variant Bgl1-var-02, V43F (numbered per mature Bgl1, SEQ ID NO:3) (Trichoderma reesei; V74F) (protein)
# chain: VVPPAGTPWGTAYDKAKAALAKLNLQDKVGIVSGVGWNGGPCFGNTSPASKISYPSLCLQDGPLGVRYSTGSTAFTPGVQAASTWDVNLIRERGQFIGEEVKASGIHVILGPVAGPLGKTPQGGRNWEGFGVDPYLTGIAMGQTINGIQSVGVQATAKHYILNEQELNRETISSNPDDRTLHELYTWPFADAVQANVASVMCSYNKVNTTWACEDQYTLQTVLKDQLGFPGYVMTDWNAQHTTVQSANSGLDMSMPGTDFNGNNRLWGPALTNAVNSNQVPTSRVDDMVTRILAAWYLTGQDQAGYPSFNISRNVQGNHKTNVRAIARDGIVLLKNDANILPLKKPASIAVVGSAAIIGNHARNSPSCNDKGCDDGALGMGWGSGAVNYPYFVAPYDAINTRASSQGTQVTLSNTDNTSSGASAARGKDVAIVFITADSGEGYITVEGNAGDRNNLDPWHNGNALVQAVAGANSNVIVVVHSVGAIILEQILALPQVKAVVWAGLPSQESGNALVDVLWGDVSPSGKLVYTIAKSPNDYNTRIVSGGSDSFSEGLFIDYKHFDDANITPRYEFGYGLSYTKFNYSRLSVLSTAKSGPATGAVVPGGPSDLFQNVATVTVDIANSGQVTGAEVAQLYITYPSSAPRTPPKQLRGFAKLNLTPGQSGTATFNIRRRDLSYWDTASQKWVVPSGSFGISVGASSRDIRLTSTLSVA
# notes: diluted fermentation product
# B2: Trichoderma reesei Bgl1 variant Bgl1-var-12, V43F/W237A (numbered per mature Bgl1, SEQ ID NO:3) (Trichoderma reesei; V74F/W268A) (protein)
# chain: B1 chain with W237A
# notes: diluted fermentation product
# B3: Trichoderma reesei beta-glucosidase I (Bgl1), wild type, SEQ ID NO:2 (mature SEQ ID NO:3) (Trichoderma reesei) (protein)
# chain: B1 chain with F43V
# notes: secreted mature protein
# B4: Trichoderma reesei Bgl1 variant Bgl1-var-03, V43L (numbered per mature Bgl1, SEQ ID NO:3) (Trichoderma reesei; V74L) (protein)
# chain: B1 chain with F43L
# notes: diluted fermentation product
# Legend:
# [1] = molecular target: T1, Trichoderma reesei Bgl1 variant Bgl1-var-12, V43F/W237A (numbered per mature Bgl1, SEQ ID NO:3) (Trichoderma reesei, UniProt Q12715, V74F/W268A); experiment: steady state kinetics, hydrolysis of pNpG; assay type: biochemical
# T1 construct: diluted fermentation product
# T1 sequence (Q12715 32-744 V74F/W268A): B1 chain with W237A
# Text: (§1) The Bgl1 variants of the table above were produced as follows. The nucleotide sequences encoding these variants were synthesized by an external vendor (BaseClear, Leiden, the Netherlands), and cloned into the pTTTpyr2 vector (see, e.g., published PCT application WO2014029808). Protoplasts of a Trichoderma reesei strain (e.g., the hexa-delete strain of International Publication WO05/001036) with its cbh1, cbh2, eg1, eg2, eg3, and bgl1 deleted) were transformed with plasmid DNA encoding the variants and wild type. The resulting transformants were fermented using standard Trichoderma reesei fermentation procedures.
# (§2) Variants 02, 03 and 12 were diluted and incubated with varying concentrations of para-nitrophenol-beta-D-xylopyranoside (or para-nitrophenol-beta-D-xyloside) (pNpX) and para-nitrophenol-beta-D-glucopyranoside (pNpG) in the concentration range of 0.1-9 mM at 37° C. for 30 minutes. Reactions were stopped by addition of 100 μL 0.5 M sodium carbonate and absorbance was measured at 410 nm. Background subtracted OD410 absorbances were plotted against substrate concentration (FIG. 6B-E) and the data was fitted with a function for Michaelis-Menten kinetics using the statistical software package R. Michaelis constants and relative maximum velocities for hydrolysis of pNpX and pNpG were reported in Tables 6 and 7, below, respectively.
# [2] = molecular target: T2, Trichoderma reesei Bgl1 variant Bgl1-var-02, V43F (numbered per mature Bgl1, SEQ ID NO:3) (Trichoderma reesei, UniProt Q12715, V74F); experiment: steady state kinetics, hydrolysis of pNpG; assay type: biochemical
# T2 construct: diluted fermentation product
# T2 sequence (Q12715 32-744 V74F): B1 chain
# Text: as §1, §2
# [3] = molecular target: T3, Trichoderma reesei beta-glucosidase I (Bgl1), wild type, SEQ ID NO:2 (mature SEQ ID NO:3) (Trichoderma reesei, UniProt Q12715); experiment: steady state kinetics, hydrolysis of pNpG; assay type: biochemical; details: 0.1-9 mM, 37° C., 30 minutes
# T3 construct: secreted mature protein
# T3 sequence (Q12715 32-744): B1 chain with F43V
# Text: as §1, §2
# [4] = molecular target: T4, Trichoderma reesei Bgl1 variant Bgl1-var-03, V43L (numbered per mature Bgl1, SEQ ID NO:3) (Trichoderma reesei, UniProt Q12715, V74L); experiment: steady state kinetics, hydrolysis of pNpG; assay type: biochemical
# T4 construct: diluted fermentation product
# T4 sequence (Q12715 32-744 V74L): B1 chain with F43L
# Text: as §1, §2
# [5] = molecular target: T1, Trichoderma reesei Bgl1 variant Bgl1-var-12, V43F/W237A (numbered per mature Bgl1, SEQ ID NO:3); experiment: steady state kinetics, hydrolysis of pNpX; assay type: biochemical
# Text: as §1, §2
# (§3) It was noted that the data for pNpX hydrolysis by the wild type Bgl1 could not be fitted with the Michaelis-Menten function. In order to calculate a Michalis constant the maximum velocity obtained for Variant 03 was used.
# [6] = molecular target: T2, Trichoderma reesei Bgl1 variant Bgl1-var-02, V43F (numbered per mature Bgl1, SEQ ID NO:3); experiment: steady state kinetics, hydrolysis of pNpX; assay type: biochemical
# Text: as §1, §2, §3
# [7] = molecular target: T3, Trichoderma reesei beta-glucosidase I (Bgl1), wild type, SEQ ID NO:2 (mature SEQ ID NO:3); experiment: steady state kinetics, hydrolysis of pNpX; assay type: biochemical; details: not fitted, maximum velocity obtained for Variant 03 was used
# Text: as §1, §2, §3
# [8] = molecular target: T4, Trichoderma reesei Bgl1 variant Bgl1-var-03, V43L (numbered per mature Bgl1, SEQ ID NO:3); experiment: steady state kinetics, hydrolysis of pNpX; assay type: biochemical
# Text: as §1, §2, §3
# [9] = substrate: O=[N+]([O-])c1ccc(O[C@@H]2OC[C@@H](O)[C@H](O)[C@H]2O)cc1; experiment: steady state kinetics, hydrolysis of pNpX; assay type: biochemical, Trichoderma reesei; details: other: pNpX, 37° C.
# Text: as §1, §2, §3
# [10] = substrate: O=[N+]([O-])c1ccc(O[C@@H]2O[C@H](CO)[C@@H](O)[C@H](O)[C@H]2O)cc1; experiment: steady state kinetics, hydrolysis of pNpG; assay type: biochemical, Trichoderma reesei; details: other: pNpG, 0.1-9 mM, 37° C., 30 minutes
# Text: as §1, §2
# [11] = fold reduction versus wild type, Table 7
# [12] = pNpG, 0.1-9 mM, 37° C., 30 minutes
# [13] = pNpX, 0.1-9 mM, 37° C., 30 minutes
molecule,measurement,setting,value
"O=[N+]([O-])c1ccc(O[C@@H]2O[C@H](CO)[C@@H](O)[C@H](O)[C@H]2O)cc1 [pNpG, para-nitrophenol-beta-D-glucopyranoside]","efficiency for hydrolysis of pNpG, reduced relative to Bgl1 wild type",[1]; [11],26 ×
same,Relative Vmax,[1]; [12],27 ± 10
same,"efficiency for hydrolysis of pNpG, reduced relative to Bgl1 wild type",[2]; [11],8 ×
same,Relative Vmax,[2]; [12],46 ± 6
same,Relative Vmax,[3],100.0 ± 0.1
same,Relative Vmax,[4]; [12],87 ± 2
same,efficiency for hydrolysis of pNpG compared with Bgl1 wild type,"[4]; versus wild type, Table 7",approximately equal
"O=[N+]([O-])c1ccc(O[C@@H]2OC[C@@H](O)[C@H](O)[C@H]2O)cc1 [pNpX, para-nitrophenol-beta-D-xylopyranoside]",Relative Vmax,[5]; [13],89 ± 4
same,higher efficiency of pNpX hydrolysis than the wild type,"[5]; ratio to wild type, Table 6",about 2 ×
same,Relative Vmax,[6]; [13],93 ± 4
same,more efficient hydrolysis of pNpX as compared to the wild type Bgl1,"[6]; ratio to wild type, Table 6",6-7 fold
same,Relative Vmax,[7],100 ± 4
same,Relative Vmax,[8]; [13],100 ± 4
same,more efficient hydrolysis of pNpX as compared to the wild type Bgl1,"[8]; ratio to wild type, Table 6",6-7 fold
B1,Km,"[9]; 0.1-9 mM, 30 minutes",5.7 mM
same,Km,[10],4.8 mM
B2,Km,"[9]; 0.1-9 mM, 30 minutes",18.4 mM
same,Km,[10],9.1 mM
B3,Km,"[9]; data could not be fitted, calculated with the maximum velocity obtained for Variant 03",45.1 mM
same,Km,[10],1.3 mM
B4,Km,"[9]; 0.1-9 mM, 30 minutes",7 mM
same,Km,[10],1.17 mM
